Assay results from PubChem BioAssay AID248 (DTP/NCI, 2004).
Values joined by “and” are separate entries in the source; they are usually repeats but may differ in a detail not shown here. Identical values can stand only once. Toxic doses and inconclusive results are not listed. No stated cut-off is given here; in the data, active means T/C of 150% or more; inactive means T/C below 125%.

System: L1210 leukemia ip in BDF1 mice, survival T/C
Experiment: NCI In Vivo Anticancer Drug Screen. Data for tumor model L1210 Leukemia (intraperitoneal) in B6D2F1 (BDF1) mice
Conditions: endpoint: mean survival time, higher = longer survival
Protocol: The antitumor activity of compounds was measured in mice bearing transplantable tumors. Survival or tumor size were measured and the results are expressed as the measurement made in the treated group (T) divided by the measurement made in the vehicle treated control group (C). The tumor model used in this assay is L1210 Leukemia (intraperitoneal) in B6D2F1 (BDF1) mice

[1] = dose: 25.0 mg/kg/injection, schedule: Q04DX003 (ip), vehicle: saline with Tween-80
[2] = dose: 50.0 mg/kg/injection, schedule: Q04DX003 (ip), vehicle: saline with Tween-80
[3] = dose: 50.0 mg/kg/injection, schedule: Q01DX009 (ip), vehicle: saline with Tween-80
[4] = dose: 100.0 mg/kg/injection, schedule: Q01DX001 (ip), vehicle: saline
[5] = dose: 200.0 mg/kg/injection, schedule: Q01DX001 (ip), vehicle: saline
[6] = dose: 400.0 mg/kg/injection, schedule: Q01DX001 (ip), vehicle: saline
[7] = dose: 50.0 mg/kg/injection, schedule: Q04DX002 (ip), vehicle: Klucel (hydroxypropylcellulose) (HPC)
[8] = dose: 100.0 mg/kg/injection, schedule: Q04DX003 (ip), vehicle: saline with Tween-80
[9] = dose: 200.0 mg/kg/injection, schedule: Q04DX003 (ip), vehicle: saline with Tween-80
[10] = dose: 400.0 mg/kg/injection, schedule: Q04DX003 (ip), vehicle: saline with Tween-80
[11] = dose: 50.0 mg/kg/injection, schedule: Q01DX001 (ip), vehicle: saline

Measured: T/C

O=C(Nc1ccccc1)Oc1ccc(OCc2ccccc2)cc1
inactive: dose: 12.5 mg/kg/injection, schedule: Q04DX003 (ip), vehicle: saline with Tween-80 95 % of control | [1] 93 % of control | [2] 93 % of control

NS(=O)(=O)O
inactive: dose: 12.5 mg/kg/injection, schedule: Q01DX009 (ip), vehicle: saline with Tween-80 103 % of control | dose: 25.0 mg/kg/injection, schedule: Q01DX009 (ip), vehicle: saline with Tween-80 95 % of control | [3] 89 % of control

CSc1ncc(CO)c(NC(C)(C)C)n1
inactive: dose: 100.0 mg/kg/injection, schedule: Q04DX003 (ip), vehicle: saline 96 % of control | dose: 200.0 mg/kg/injection, schedule: Q04DX003 (ip), vehicle: saline 100 % of control | dose: 400.0 mg/kg/injection, schedule: Q04DX003 (ip), vehicle: saline 100 % of control

CC(C)(C)C(Br)C(=O)Nc1ccccc1 (centres undefined)
inactive: [4] 104 % of control | [5] 102 % of control | [6] 102 % of control

Cc1c2c(nn1-c1ccccn1)C(=O)C=C(Nc1ccccc1)C2=O
inactive: dose: 12.5 mg/kg/injection, schedule: Q04DX002 (ip), vehicle: Klucel (hydroxypropylcellulose) (HPC) 92 % of control | dose: 25.0 mg/kg/injection, schedule: Q04DX002 (ip), vehicle: Klucel (hydroxypropylcellulose) (HPC) 96 % of control | [7] 92 % of control | dose: 400.0 mg/kg/injection, schedule: Q04DX002 (ip), vehicle: Klucel (hydroxypropylcellulose) (HPC) 90 % of control

CCSc1ccc2c(cc1=O)[C@@H](NC1OC(CO)C(O)C(O)C1O)CCc1cc(OC)c(OC)c(OC)c1-2 (some centres undefined)
inactive: dose: 50.0 mg/kg/injection, schedule: Q01DX009 (ip), vehicle: other 105 % of control | dose: 100.0 mg/kg/injection, schedule: Q01DX009 (ip), vehicle: other 102 % of control | dose: 200.0 mg/kg/injection, schedule: Q01DX009 (ip), vehicle: other 114 % of control | dose: 400.0 mg/kg/injection, schedule: Q01DX009 (ip), vehicle: other 114 % of control

NC(=O)N(Cc1ccccc1)N=O
inactive: dose: 6.25 mg/kg/injection, schedule: Q01DX Z (ip), vehicle: carboxymethylcellulose (CMC) 101 % of control | dose: 12.5 mg/kg/injection, schedule: Q01DX Z (ip), vehicle: carboxymethylcellulose (CMC) 116 % of control | dose: 25.0 mg/kg/injection, schedule: Q01DX Z (ip), vehicle: carboxymethylcellulose (CMC) 104 % of control | dose: 50.0 mg/kg/injection, schedule: Q01DX Z (ip), vehicle: carboxymethylcellulose (CMC) 110 % of control | dose: 100.0 mg/kg/injection, schedule: Q01DX Z (ip), vehicle: carboxymethylcellulose (CMC) 116 % of control

CC(=O)N(c1ccncc1)c1ccc([N+](=O)[O-])cc1
inactive: [3] 94 % of control | dose: 100.0 mg/kg/injection, schedule: Q01DX009 (ip), vehicle: saline with Tween-80 97 % of control and 107 % of control | dose: 100.0 mg/kg/injection, schedule: Q04DX002 (ip), vehicle: saline with Tween-80 105 % of control and 108 % of control | [8] 98 % of control | dose: 200.0 mg/kg/injection, schedule: Q01DX009 (ip), vehicle: saline with Tween-80 94 % of control and 110 % of control | dose: 200.0 mg/kg/injection, schedule: Q04DX002 (ip), vehicle: saline with Tween-80 105 % of control and 109 % of control | [9] 98 % of control | dose: 400.0 mg/kg/injection, schedule: Q04DX002 (ip), vehicle: saline with Tween-80 92 % of control | [10] 104 % of control

Nc1nc2c(c(=O)[nH]1)NC(CCNc1ccc(C(=O)NC(CCC(=O)O)C(=O)O)cc1)CN2 (centres undefined)
inactive: dose: 50.0 mg/kg/injection, schedule: Q01DX001 (ip), vehicle: other 104 % of control | [11] 113 % of control | dose: 100.0 mg/kg/injection, schedule: Q01DX001 (ip), vehicle: other 101 % of control | [4] 116 % of control | dose: 108.0 mg/kg/injection, schedule: Q01DX009 (ip), vehicle: other 119 % of control | dose: 200.0 mg/kg/injection, schedule: Q01DX001 (ip), vehicle: other 110 % of control | [5] 107 % of control | dose: 300.0 mg/kg/injection, schedule: Q01DX009 (ip), vehicle: other 116 % of control | dose: 400.0 mg/kg/injection, schedule: Q01DX001 (ip), vehicle: other 110 % of control | [6] 115 % of control | dose: 500.0 mg/kg/injection, schedule: Q01DX009 (ip), vehicle: other 112 % of control

CC1(C)CCC(=NNC(N)=S)CC1
inactive: dose: 5.0 mg/kg/injection, schedule: Q01DX001 (ip), vehicle: carboxymethylcellulose (CMC) 101 % of control | dose: 10.0 mg/kg/injection, schedule: Q01DX001 (ip), vehicle: carboxymethylcellulose (CMC) 97 % of control | dose: 20.0 mg/kg/injection, schedule: Q01DX001 (ip), vehicle: carboxymethylcellulose (CMC) 92 % of control | dose: 40.0 mg/kg/injection, schedule: Q01DX001 (ip), vehicle: carboxymethylcellulose (CMC) 92 % of control

CCC(CC)(CC)C(OC(=O)c1ccccc1C(=O)O)c1ccccc1 (centres undefined)
inactive: [11] 95 % of control | [4] 95 % of control | [5] 97 % of control | [6] 88 % of control

CC[C@@H]1CN(C)[C@H]2Cc3c([nH]c4ccccc34)C(=O)C[C@H]1C2C(=O)OC (some centres undefined)
inactive: dose: 75.0 mg/kg/injection, schedule: Q01DX001 (ip), vehicle: carboxymethylcellulose (CMC) 97 % of control | dose: 150.0 mg/kg/injection, schedule: Q01DX001 (ip), vehicle: carboxymethylcellulose (CMC) 95 % of control | dose: 300.0 mg/kg/injection, schedule: Q01DX001 (ip), vehicle: carboxymethylcellulose (CMC) 95 % of control

CC1CC(=O)c2ccccc2N1S(C)(=O)=O (centres undefined)
inactive: dose: 100.0 mg/kg/injection, schedule: Q01DX009 (ip), vehicle: Klucel (hydroxypropylcellulose) (HPC) 95 % of control | dose: 100.0 mg/kg/injection, schedule: Q04DX003 (ip), vehicle: Klucel (hydroxypropylcellulose) (HPC) 102 % of control | dose: 200.0 mg/kg/injection, schedule: Q01DX009 (ip), vehicle: Klucel (hydroxypropylcellulose) (HPC) 95 % of control | dose: 200.0 mg/kg/injection, schedule: Q04DX003 (ip), vehicle: Klucel (hydroxypropylcellulose) (HPC) 102 % of control | dose: 400.0 mg/kg/injection, schedule: Q01DX009 (ip), vehicle: Klucel (hydroxypropylcellulose) (HPC) 101 % of control | dose: 400.0 mg/kg/injection, schedule: Q04DX003 (ip), vehicle: Klucel (hydroxypropylcellulose) (HPC) 94 % of control

Cc1ccc(S(=O)(=O)N/N=C2/CC3CCCCCCC23)cc1 (centres undefined)
inactive: [7] 104 % of control | dose: 100.0 mg/kg/injection, schedule: Q04DX002 (ip), vehicle: Klucel (hydroxypropylcellulose) (HPC) 97 % of control | dose: 200.0 mg/kg/injection, schedule: Q04DX002 (ip), vehicle: Klucel (hydroxypropylcellulose) (HPC) 111 % of control

O=c1ccoc(-c2cc(=O)cco2)c1
inactive: [1] 97 % of control | [2] 93 % of control | [8] 95 % of control

CC[Si](CC)(CC)N1CC1
inactive: dose: 12.5 mg/kg/injection, schedule: Q01DX001 (ip), vehicle: carboxymethylcellulose (CMC) 106 % of control | dose: 25.0 mg/kg/injection, schedule: Q01DX001 (ip), vehicle: carboxymethylcellulose (CMC) 92 % of control | dose: 50.0 mg/kg/injection, schedule: Q01DX001 (ip), vehicle: carboxymethylcellulose (CMC) 92 % of control

CCCCCCCC(=O)Nc1ccc(C)cc1C
inactive: [8] 95 % of control | [9] 98 % of control | [10] 94 % of control
